The values below come from ChEMBL document CHEMBL5154791, “Optimization of a Pyrimidinone Series for Selective Inhibition of Ca2+/Calmodulin-Stimulated Adenylyl Cyclase 1 Activity for the Treatment of Chronic Pain” (J Med Chem, 2022).

≈ marks a conversion by molar mass, not a printed value. Calls of active or inactive are those of the source. The rule behind the calls is not given here. Where only a bound is given, the exact number is not on record here.

Data set [1] can be described thus: Thermodynamic solubility of the compound in PBS at pH 7.4. The class given is physicochemical. As to conditions: read-out: Therm_solubility.
Data set [2] has as its target Insulin receptor (Homo sapiens) (UniProt P06213). The data set is described as follows: Inhibition of human recombinant IRK assessed as inhibition of phosphorylation activity at 10 uM using 33P-labeleled peptide substrate by radiometric scintillation counting assay relative to control.
In data set [3] the target is 5-hydroxytryptamine receptor 2B (Homo sapiens, UniProt P41595). Put plainly: Binding affinity to 5-HT2B receptor (unknown origin) assessed as displacement of radioligand at 10 uM by radioligand binding assay.
Data set [4] addresses T1, Adenylate cyclase type 8 (Homo sapiens, UniProt P40145). Put plainly: Inhibition of Ca2+/ CAM stimulated human AC8 activity expressed in AC3 and AC6-knockout HEK293 cells assessed as A23187 stimulated cAMP accumulation incubated for 30 mins followed by […] in presence of IBMX for 1 hr by HTRF assay relative to control. Particulars: time 90.0 min. The class given is cell-based. Set-up: concentration or dose not given beside the values. A general note: cAMP levels reflect the balance of adenylyl cyclase and phosphodiesterase activity.

The target of data set [5] is T1, Adenylate cyclase type 8. The data set is described as follows: Inhibition of Ca2+/ CAM stimulated human AC8 activity expressed in AC3 and AC6-knockout HEK293 cells assessed as A23187 stimulated cAMP accumulation incubated for 30 mins followed by […] in presence of IBMX for 1 hr by HTRF assay. The class given is cell-based.
For data set [6], the target named is T1, Adenylate cyclase type 8. Put plainly: Inhibition of Ca2+/ CAM stimulated human AC8 expressed in AC3 and AC6-knockout HEK293 cells assessed as A23187 stimulated cAMP accumulation at 10 uM incubated for 30 mins followed by […] in presence of IBMX for 1 hr by HTRF assay relative to control. The class given is cell-based. Particulars: time 90.0 min.

Data set [7] concerns the target Vascular endothelial growth factor receptor 2 (Homo sapiens) (UniProt P35968). Put plainly: Inhibition of human recombinant VEGFR2 assessed as inhibition of phosphorylation activity at 10 uM using 33P-labeleled peptide substrate by radiometric scintillation counting assay relative to control.
The test system of a further data set is HEK293. Put plainly: Cytotoxicity against HEK293 cells assessed as reduction in cell viability at 30 uM incubated for 1 hr by cell titer glo assay. The class given is toxicity, cell-based. As to conditions: human, hek293, 1 h. (In ATP-based viability assays light output follows the ATP content of the culture.)
In another data set the target is Adenylate cyclase type 1 (Homo sapiens, UniProt Q08828).
Data set [8] deals with Voltage-gated inwardly rectifying potassium channel KCNH2 (Homo sapiens, UniProt Q12809). The data set is described as follows: Displacement of [3H]astemizole from human ERG expressed in HEK293 cell membrane at 10 uM by Radiometric displacement assay relative to control. The class given is toxicity, cell membranes. As to conditions: hek293, 10 µM. (In a radioligand displacement assay an active substance lowers the binding of a labelled ligand.)

The subject of another data set is Mus musculus. The data set is described as follows: Antiallodynic activity against CFA-induced C57BL/6N mouse inflammatory pain model assessed as inhibition of inflammatory mechanical allodynia at 5.6 mg/kg, ip measured over 2 hrs post treatment by von Frey test. The class given is functional, organism-based.

Sequence of 5-hydroxytryptamine receptor 2B (P41595 whole entry): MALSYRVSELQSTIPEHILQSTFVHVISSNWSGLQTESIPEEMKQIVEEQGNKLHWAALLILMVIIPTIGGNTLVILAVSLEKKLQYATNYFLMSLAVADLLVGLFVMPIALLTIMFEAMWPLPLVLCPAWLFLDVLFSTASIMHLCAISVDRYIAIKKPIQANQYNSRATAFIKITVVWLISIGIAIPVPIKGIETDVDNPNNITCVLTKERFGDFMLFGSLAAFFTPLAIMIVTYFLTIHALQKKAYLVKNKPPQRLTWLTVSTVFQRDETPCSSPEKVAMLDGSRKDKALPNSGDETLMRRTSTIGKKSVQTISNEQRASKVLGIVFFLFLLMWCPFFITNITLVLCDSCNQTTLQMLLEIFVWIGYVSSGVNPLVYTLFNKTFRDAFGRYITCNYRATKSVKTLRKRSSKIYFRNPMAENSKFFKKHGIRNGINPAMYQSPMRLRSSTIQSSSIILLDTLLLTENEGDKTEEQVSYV
T1 sequence (P40145 whole entry): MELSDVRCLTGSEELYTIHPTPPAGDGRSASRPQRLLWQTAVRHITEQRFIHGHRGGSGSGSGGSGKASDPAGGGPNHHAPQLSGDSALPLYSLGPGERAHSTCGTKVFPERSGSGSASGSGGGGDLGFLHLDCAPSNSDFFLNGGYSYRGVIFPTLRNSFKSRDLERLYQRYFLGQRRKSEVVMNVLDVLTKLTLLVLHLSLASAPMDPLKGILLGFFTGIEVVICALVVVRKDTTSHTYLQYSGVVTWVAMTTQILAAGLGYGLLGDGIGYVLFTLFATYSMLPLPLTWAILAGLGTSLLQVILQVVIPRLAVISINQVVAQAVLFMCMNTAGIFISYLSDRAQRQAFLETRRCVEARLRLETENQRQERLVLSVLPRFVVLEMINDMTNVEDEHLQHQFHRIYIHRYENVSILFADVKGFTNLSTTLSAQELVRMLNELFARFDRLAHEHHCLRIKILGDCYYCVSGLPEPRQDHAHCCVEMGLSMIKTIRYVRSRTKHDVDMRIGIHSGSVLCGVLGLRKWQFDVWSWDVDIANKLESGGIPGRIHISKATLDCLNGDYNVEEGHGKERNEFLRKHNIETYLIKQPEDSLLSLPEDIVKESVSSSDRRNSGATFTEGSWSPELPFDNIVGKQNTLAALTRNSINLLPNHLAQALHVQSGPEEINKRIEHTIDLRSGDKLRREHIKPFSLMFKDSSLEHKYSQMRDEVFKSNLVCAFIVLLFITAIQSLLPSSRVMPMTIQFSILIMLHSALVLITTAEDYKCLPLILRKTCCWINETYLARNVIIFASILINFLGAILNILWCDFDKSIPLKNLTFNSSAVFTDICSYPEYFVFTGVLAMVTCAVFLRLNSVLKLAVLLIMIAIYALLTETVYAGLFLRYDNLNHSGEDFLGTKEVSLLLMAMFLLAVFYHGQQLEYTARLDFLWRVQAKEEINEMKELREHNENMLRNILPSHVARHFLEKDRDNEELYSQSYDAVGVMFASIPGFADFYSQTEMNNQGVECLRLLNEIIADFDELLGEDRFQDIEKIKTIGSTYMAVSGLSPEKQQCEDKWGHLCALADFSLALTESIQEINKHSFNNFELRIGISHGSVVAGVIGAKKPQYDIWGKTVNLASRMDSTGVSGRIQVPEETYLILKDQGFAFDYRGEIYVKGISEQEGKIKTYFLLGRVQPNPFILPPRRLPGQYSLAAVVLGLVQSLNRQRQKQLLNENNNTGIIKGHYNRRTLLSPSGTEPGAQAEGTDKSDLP
Sequence of Adenylate cyclase type 1 (Q08828 whole entry): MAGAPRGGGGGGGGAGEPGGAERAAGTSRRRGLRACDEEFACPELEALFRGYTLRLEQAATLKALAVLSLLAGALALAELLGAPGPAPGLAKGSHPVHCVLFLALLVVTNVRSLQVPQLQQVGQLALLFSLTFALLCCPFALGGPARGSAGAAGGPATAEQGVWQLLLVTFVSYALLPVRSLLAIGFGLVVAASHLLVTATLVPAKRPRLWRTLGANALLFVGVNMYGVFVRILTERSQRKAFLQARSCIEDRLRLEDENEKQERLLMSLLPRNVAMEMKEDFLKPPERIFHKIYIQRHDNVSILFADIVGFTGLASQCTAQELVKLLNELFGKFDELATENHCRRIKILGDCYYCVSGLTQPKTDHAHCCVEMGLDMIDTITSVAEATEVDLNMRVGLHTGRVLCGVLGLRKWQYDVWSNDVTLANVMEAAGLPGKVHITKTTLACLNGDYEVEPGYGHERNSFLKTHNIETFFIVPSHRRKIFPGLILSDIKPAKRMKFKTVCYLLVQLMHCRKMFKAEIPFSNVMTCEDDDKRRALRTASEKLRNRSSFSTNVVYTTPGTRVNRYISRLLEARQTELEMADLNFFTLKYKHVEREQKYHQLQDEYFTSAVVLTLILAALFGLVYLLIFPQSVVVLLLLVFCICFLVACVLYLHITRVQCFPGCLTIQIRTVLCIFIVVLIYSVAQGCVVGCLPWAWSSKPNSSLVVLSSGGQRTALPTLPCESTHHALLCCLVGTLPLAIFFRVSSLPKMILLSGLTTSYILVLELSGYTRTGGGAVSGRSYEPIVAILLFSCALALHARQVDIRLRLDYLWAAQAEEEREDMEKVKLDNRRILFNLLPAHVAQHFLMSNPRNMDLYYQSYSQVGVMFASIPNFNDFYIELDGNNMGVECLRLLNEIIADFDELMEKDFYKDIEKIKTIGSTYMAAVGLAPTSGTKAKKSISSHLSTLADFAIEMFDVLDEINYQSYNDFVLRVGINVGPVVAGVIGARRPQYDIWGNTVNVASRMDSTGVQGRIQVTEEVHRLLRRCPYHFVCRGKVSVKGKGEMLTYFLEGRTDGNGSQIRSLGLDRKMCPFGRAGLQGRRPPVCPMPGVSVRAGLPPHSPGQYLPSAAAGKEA
Sequence of Insulin receptor (Homo sapiens) (P06213 28-758 limits assumed): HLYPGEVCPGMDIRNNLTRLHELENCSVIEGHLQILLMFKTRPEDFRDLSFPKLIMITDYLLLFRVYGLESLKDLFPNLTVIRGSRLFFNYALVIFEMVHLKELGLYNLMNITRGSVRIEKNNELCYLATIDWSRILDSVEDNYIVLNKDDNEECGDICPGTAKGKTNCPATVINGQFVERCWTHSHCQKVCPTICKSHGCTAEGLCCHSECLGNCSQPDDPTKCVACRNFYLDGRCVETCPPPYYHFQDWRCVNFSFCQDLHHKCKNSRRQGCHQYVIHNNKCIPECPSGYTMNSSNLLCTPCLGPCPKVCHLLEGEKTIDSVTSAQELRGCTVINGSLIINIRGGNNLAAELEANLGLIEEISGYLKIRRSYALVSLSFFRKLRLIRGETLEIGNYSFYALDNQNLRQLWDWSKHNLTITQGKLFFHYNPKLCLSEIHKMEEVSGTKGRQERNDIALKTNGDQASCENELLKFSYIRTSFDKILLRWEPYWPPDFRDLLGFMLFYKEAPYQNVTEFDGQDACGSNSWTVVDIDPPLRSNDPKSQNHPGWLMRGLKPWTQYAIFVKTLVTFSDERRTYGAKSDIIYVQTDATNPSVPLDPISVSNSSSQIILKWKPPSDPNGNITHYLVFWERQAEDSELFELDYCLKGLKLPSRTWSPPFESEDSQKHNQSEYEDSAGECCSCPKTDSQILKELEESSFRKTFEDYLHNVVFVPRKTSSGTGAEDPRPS
Sequence of Insulin receptor (Homo sapiens) (P06213 763-1382 limits assumed): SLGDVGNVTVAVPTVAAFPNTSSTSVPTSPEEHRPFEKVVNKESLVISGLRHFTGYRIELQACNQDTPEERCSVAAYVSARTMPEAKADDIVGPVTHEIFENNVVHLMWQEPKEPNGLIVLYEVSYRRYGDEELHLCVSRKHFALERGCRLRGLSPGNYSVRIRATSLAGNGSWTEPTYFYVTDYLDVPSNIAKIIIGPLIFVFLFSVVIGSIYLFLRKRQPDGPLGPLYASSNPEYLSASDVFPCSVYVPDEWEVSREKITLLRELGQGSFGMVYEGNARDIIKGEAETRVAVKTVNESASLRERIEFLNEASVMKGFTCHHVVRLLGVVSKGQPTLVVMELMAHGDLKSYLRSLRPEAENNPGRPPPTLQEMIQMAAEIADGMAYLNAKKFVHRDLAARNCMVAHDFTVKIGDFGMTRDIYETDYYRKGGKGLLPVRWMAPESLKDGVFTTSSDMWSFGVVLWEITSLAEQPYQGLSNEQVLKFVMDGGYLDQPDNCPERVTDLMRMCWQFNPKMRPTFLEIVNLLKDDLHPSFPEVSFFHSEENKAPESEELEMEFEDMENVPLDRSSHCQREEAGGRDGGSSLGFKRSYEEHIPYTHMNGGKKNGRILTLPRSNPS
Description for Adenylate cyclase type 1: Inhibition of Ca2+/ CAM stimulated human AC1 activity expressed in AC3 and AC6-knockout HEK293 cells assessed as A23187 stimulated cAMP accumulation incubated for 30 mins followed by A2318 stimulation in presence of IBMX for 1 hr by HTRF assay

Broadly, the inhibition is how much of the control response was suppressed. As a reminder, the IC50 is the concentration that inhibits the measured activity by half. For the molecule `CCc1cccc(C(=O)Nc2cc(C)nn2-c2nc(CC)cc(=O)[nH]2)c1`, the solubility thermodynamic in data set [1] was 10.8 µM (≈ 3.8 µg/mL). Also, the inhibition was determined as 57% in [2], 49% in data set [3] (filed as antagonist), 12% at Adenylate cyclase type 8 [4] and 28% in data set [7]. In addition, the IC50 at Adenylate cyclase type 8 [5] turned out to be 3.5 µM; on Adenylate cyclase type 1 it was 0.44 µM. Further, the inhibition result at Adenylate cyclase type 8 [6] was “Active”. In the data set on HEK293, the Activity entry is “Non-Toxic”.
For the molecule `CCc1cc(=O)[nH]c(-n2nc(C)cc2NC(=O)c2ccc(C)c(C)c2)n1`, the solubility thermodynamic in [1] stood at 7.6 µM (≈ 2.67 µg/mL). Further, the figures for the inhibition (in data set [2]; in data set [3]; at Adenylate cyclase type 8 [4]) were 4%, 32% and 27%, respectively. In addition, the results for the IC50 at Adenylate cyclase type 8 [5] and against Adenylate cyclase type 1 were 0.71 µM and 0.29 µM, respectively. Besides, the inhibition result at Adenylate cyclase type 8 [6] is “Active”. For the same molecule, the “inhibition (INH)” value in [8] is 11%. In the data set with HEK293, the Activity entry was “Non-Toxic”.
With `CCc1cc(=O)[nH]c(-n2nc(C)cc2NC(=O)c2cccc(-c3ccccc3)c2)n1`, the inhibition at Adenylate cyclase type 8 [4] worked out at 37%. For the same molecule, the IC50 on Adenylate cyclase type 8 [5] came out at 0.57 µM; against Adenylate cyclase type 1, 0.25 µM.
As a reminder, the Ki is the equilibrium dissociation constant of an inhibitor or competing ligand from its target. With `CCc1cc(=O)[nH]c(-n2nc(C)cc2NC(=O)c2ccccc2F)n1`, in data set [3], the Ki came to 1.3 µM. Also, the inhibition on Adenylate cyclase type 8 [4] is 46%. Moreover, the IC50 at Adenylate cyclase type 8 [5] is 1.9 µM; against Adenylate cyclase type 1, 1.4 µM. Further, at Adenylate cyclase type 8 [6], the inhibition result was “Active”. In addition, the Activity result in the data set with HEK293 was “Non-Toxic”.
Regarding `CCc1cc(=O)[nH]c(-n2nc(C)cc2NC(=O)c2ccc(C)cc2)n1`, the inhibition at Adenylate cyclase type 8 [4] is 27%. For the same molecule, the IC50 at Adenylate cyclase type 8 [5] is above 60 µM; against Adenylate cyclase type 1, 0.67 µM.
The matching figures for `CCc1cc(=O)[nH]c(-n2nc(C)cc2NC(=O)c2ccc(N(C)C)cc2)n1`: 39%, 1 µM and 2.3 µM.
In the same order, the values of `CCc1cc(=O)[nH]c(-n2nc(C)cc2NC(=O)c2ccccc2)n1` are 0%, 35.9 µM and 2.8 µM.
The matching figures for `CCc1cc(=O)[nH]c(-n2nc(C)cc2NC(=O)c2cccc(C)c2F)n1`: 9%, above 60 µM and 0.57 µM.
Consider `CCOc1cccc(C(=O)Nc2cc(C)nn2-c2nc(CC)cc(=O)[nH]2)c1`, for which the inhibition on Adenylate cyclase type 8 [4] was determined as 11%. Besides, the results for the IC50 on Adenylate cyclase type 8 [5] and on Adenylate cyclase type 1 were 4.4 µM and 0.9 µM, respectively.
Regarding `CCc1cc(=O)[nH]c(-n2nc(C)cc2NC(=O)c2cccc(C)c2)n1`, in data set [1], the solubility thermodynamic is 19.5 µM (≈ 6.58 µg/mL). The Ki in [3] worked out at 0.9 µM. Also, the inhibition at Adenylate cyclase type 8 [4] came to 27%. Besides, the IC50 on Adenylate cyclase type 8 [5] came to 2.7 µM; on Adenylate cyclase type 1 it was 0.41 µM. The inhibition entry on Adenylate cyclase type 8 [6] was “Active”. In addition, the Activity result in the data set on HEK293 is listed as “Non-Toxic”.
With `CCc1cc(=O)[nH]c(-n2nc(C)cc2NC(=O)c2cccc(C(C)C)c2)n1`, at Adenylate cyclase type 8 [4], the inhibition turned out to be 28%. Besides, the values for the IC50 at Adenylate cyclase type 8 [5] and against Adenylate cyclase type 1 were 2.6 µM and 0.36 µM, respectively.
For `CCc1cc(=O)[nH]c(-n2nc(C)cc2NC(=O)Cc2ccccc2F)n1`, the concentration for half-maximal inhibition (IC50) at Adenylate cyclase type 8 [5] was 3.4 µM; against Adenylate cyclase type 1, 16.3 µM.
For `CCc1cc(=O)[nH]c(-n2nc(C)cc2NC(=O)c2ccc(OC)cc2)n1`, the inhibition on Adenylate cyclase type 8 [4] came to 0%. Moreover, on Adenylate cyclase type 8 [5], the concentration for half-maximal inhibition (IC50) is above 60 µM.
Take `CCc1cc(=O)[nH]c(-n2nc(C)cc2NC(=O)c2ccccc2CC)n1`: on Adenylate cyclase type 8 [4], the inhibition was found to be 21%. Besides, the half-inhibitory concentration (IC50) at Adenylate cyclase type 8 [5] is above 60 µM; against Adenylate cyclase type 1, 3.1 µM.
In the same order, the values of `CCc1ccc(C(=O)Nc2cc(C)nn2-c2nc(CC)cc(=O)[nH]2)cc1` are 19%, 6.6 µM and 0.39 µM.
The matching figures for `CCc1cc(=O)[nH]c(-n2nc(C)cc2NC(=O)c2ccc(C(C)(C)C)cc2)n1`: 35%, 1.2 µM and 0.97 µM.
In the same order, the values of `CCc1cc(=O)[nH]c(-n2nc(C)cc2NC(=O)c2ccc(F)cc2)n1` are 52%, 0.78 µM and 0.79 µM.
Consider `CCc1cc(=O)[nH]c(-n2nc(C)cc2NC(=O)c2cc(C)cc(C)c2)n1`, for which the inhibition on Adenylate cyclase type 8 [4] came out at 27%. In addition, the results for the half-maximal inhibitory concentration (IC50) on Adenylate cyclase type 8 [5] and against Adenylate cyclase type 1 were 1.7 µM and 0.52 µM, respectively.
With `CCc1cc(=O)[nH]c(-n2nc(C)cc2NC(C)=O)n1`, the IC50 on Adenylate cyclase type 8 [5] was 10.6 µM; on Adenylate cyclase type 1, above 30 µM.
On to `CN1CC[C@]23c4c5ccc(O)c4O[C@H]2[C@@H](O)C=C[C@H]3[C@H]1C5`, for which the outcome with Mus musculus was Active.
For `CCc1cc(=O)[nH]c(-n2nc(C)cc2NC(=O)c2cccc(C(F)(F)F)c2)n1`, at Adenylate cyclase type 8 [4], the inhibition was found to be 41%. The values for the IC50 at Adenylate cyclase type 8 [5] and against Adenylate cyclase type 1 were 1.3 µM and 0.68 µM, respectively.
The matching figures for `CCc1cc(=O)[nH]c(-n2nc(C)cc2NC(=O)c2ccccc2C)n1`: 11%, 15.7 µM and 2.2 µM.
Take `CCc1cc(=O)[nH]c(-n2nc(C)cc2NC(=O)c2ccc(O)cc2)n1`: the IC50 at Adenylate cyclase type 8 [5] and on Adenylate cyclase type 1 was above 60 µM throughout.
As to `CCc1cc(=O)[nH]c(-n2nc(C)cc2NC(=O)c2cccc(Cl)c2)n1`, the inhibition at Adenylate cyclase type 8 [4] was determined as 48%. Moreover, the figures for the half-maximal inhibitory concentration (IC50) on Adenylate cyclase type 8 [5] and against Adenylate cyclase type 1 were 1 µM and 0.47 µM, respectively.
The matching figures for `CCc1cc(=O)[nH]c(-n2nc(C)cc2NC(=O)c2cccc(C(C)(C)C)c2)n1`: 25%, 0.38 µM and 0.88 µM.
In the case of `CCc1cc(=O)[nH]c(-n2nc(C)cc2NC(=O)c2ccc(-c3ccccc3)cc2)n1`, the inhibition at Adenylate cyclase type 8 [4] amounted to 32%. The 50% inhibitory concentration (IC50) is 0.7 µM on Adenylate cyclase type 8 [5] and 0.77 µM on Adenylate cyclase type 1.
Turning to `CCc1cc(=O)[nH]c(-n2nc(C)cc2NC(=O)Cc2cccc(C)c2)n1`, on Adenylate cyclase type 8 [4], the inhibition came to 59%. Besides, the IC50 at Adenylate cyclase type 8 [5] is above 60 µM; at Adenylate cyclase type 1, 9.2 µM.
As to `CCc1cc(=O)[nH]c(-n2nc(C)cc2NC(=O)c2cccc(Br)c2)n1`, the inhibition on Adenylate cyclase type 8 [4] came out at 15%. Also, the IC50 on Adenylate cyclase type 8 [5] was 2.1 µM; against Adenylate cyclase type 1, 0.61 µM.
As to `CCc1cc(=O)[nH]c(-n2nc(C)cc2NC(=O)c2ccccn2)n1`, the inhibition on Adenylate cyclase type 8 [4] was found to be 46%. Further, at Adenylate cyclase type 8 [5], the IC50 stood at 2.8 µM.
Regarding `CCc1cc(=O)[nH]c(-n2nc(C)cc2NC(=O)c2cccc(OC)c2)n1`, the inhibition on Adenylate cyclase type 8 [4] came out at 5%. In addition, the IC50 at Adenylate cyclase type 8 [5] came out at 9.6 µM; against Adenylate cyclase type 1, 1.42 µM.
For `CCc1cc(=O)[nH]c(-n2nc(C)cc2NC(=O)c2cccc(SC)c2)n1`, at Adenylate cyclase type 8 [4], the inhibition was found to be 52%. The IC50 came out at 1.3 µM at Adenylate cyclase type 8 [5] and 0.63 µM at Adenylate cyclase type 1.
In the same order, the values of `CCc1cc(=O)[nH]c(-n2nc(C)cc2NC(=O)c2cccc(F)c2)n1` are 55%, 1.6 µM and 1.4 µM.
In the same order, the values of `CCc1cc(=O)[nH]c(-n2nc(C)cc2NC(=O)c2ccc(Cl)cc2)n1` are 53%, 2.5 µM and 0.36 µM.
The matching figures for `CCc1cc(=O)[nH]c(-n2nc(C)cc2NC(=O)c2cccc(C3CC3)c2)n1`: 17%, 1.9 µM and 0.81 µM.
With `CCc1cc(=O)[nH]c(-n2nc(C)cc2NC(=O)c2ccc(OCOC)cc2)n1`, the IC50 was above 30 µM at Adenylate cyclase type 8 [5] and 4.3 µM against Adenylate cyclase type 1.
As for `CCc1cc(=O)[nH]c(-n2nc(C)cc2NC(=O)c2ccco2)n1`, the inhibition at Adenylate cyclase type 8 [4] was found to be 20%. Moreover, the figures for the concentration for half-maximal inhibition (IC50) at Adenylate cyclase type 8 [5] and at Adenylate cyclase type 1 were 15.7 µM and 6.7 µM, respectively.
